Where “and” joins values, the source holds several entries; their conditions need not be identical. Equal entries are not always repeated. Inconclusive results are not listed.
Test system: BDF1 mice, s.c. Lewis lung carcinoma, T/C %
Test: NCI In Vivo Anticancer Drug Screen. Data for tumor model Lewis Lung Carcinoma (subcutaneous) in B6D2F1 (BDF1) mice
How it was run: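 Transplanted tumors grown in mice; compound vs vehicle dosing; endpoint survival or tumor size; ratio T/C.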

[1] = endpoint: mean tumor weight, dose: 125.0 mg/kg/injection, schedule: Q01DX011 (ip), vehicle: saline, higher = larger tumour
[2] = endpoint: mean tumor weight, dose: 2.0 mg/kg/injection, schedule: Q01DX011 (ip), vehicle: carboxymethylcellulose (CMC), higher = larger tumour
[3] = endpoint: median survival time, dose: 1.56 mg/kg/injection, schedule: Q01DX009 (ip), vehicle: saline, higher = longer survival
[4] = endpoint: mean tumor weight, dose: 133.0 mg/kg/injection, schedule: Q01DX011 (ip), vehicle: other, higher = larger tumour
[5] = endpoint: mean tumor weight, dose: 200.0 mg/kg/injection, schedule: Q01DX011 (ip), vehicle: other, higher = larger tumour

CCN(CC)C(=S)S
T/C [1]: 86 % of control | T/C (endpoint: median survival time, dose: 125.0 mg/kg/injection, schedule: Q01DX011 (ip), vehicle: saline, higher = longer survival): 123 % of control and 124 % of control | T/C (endpoint: median survival time, dose: 250.0 mg/kg/injection, schedule: Q01DX011 (ip), vehicle: saline, higher = longer survival): 112 % of control and 116 % of control | T/C (endpoint: median survival time, dose: 500.0 mg/kg/injection, schedule: Q01DX011 (ip), vehicle: saline, higher = longer survival): 104 % of control and 105 % of control | T/C (endpoint: median survival time, dose: 1000.0 mg/kg/injection, schedule: Q01DX011 (ip), vehicle: saline, higher = longer survival): 102 % of control and 105 % of control

COc1ccc(-c2cc(=O)c3c(O)cc(OC)cc3o2)cc1
T/C (endpoint: mean tumor weight, dose: 220.0 mg/kg/injection, schedule: Q01DX011 (ip), vehicle: saline, higher = larger tumour): 84 % of control | T/C (endpoint: mean tumor weight, dose: 330.0 mg/kg/injection, schedule: Q01DX011 (ip), vehicle: saline, higher = larger tumour): 71 % of control and 89 % of control | T/C (endpoint: mean tumor weight, dose: 500.0 mg/kg/injection, schedule: Q01DX011 (ip), vehicle: saline, higher = larger tumour): 48 % of control and 60 % of control

CCCCCC[C@H]([C@H](C)O)n1cnc2c(N)ncnc21
T/C (endpoint: median survival time, dose: 25.0 mg/kg/injection, schedule: Q01DX009 (ip), vehicle: Klucel (hydroxypropylcellulose) (HPC), higher = longer survival): 88 % of control | T/C (endpoint: median survival time, dose: 50.0 mg/kg/injection, schedule: Q01DX009 (ip), vehicle: Klucel (hydroxypropylcellulose) (HPC), higher = longer survival): 103 % of control | T/C (endpoint: median survival time, dose: 100.0 mg/kg/injection, schedule: Q01DX009 (ip), vehicle: Klucel (hydroxypropylcellulose) (HPC), higher = longer survival): 111 % of control

COC1=C(N)C(=O)c2nc(-c3nc(C(=O)O)c(C)c(-c4ccc(OC)c(OC)c4O)c3N)ccc2C1=O
T/C (endpoint: mean tumor weight, dose: 0.06 mg/kg/injection, schedule: Q01DX011 (ip), vehicle: water, higher = larger tumour): 68 % of control | T/C (endpoint: mean tumor weight, dose: 0.12 mg/kg/injection, schedule: Q01DX011 (ip), vehicle: water, higher = larger tumour): 56 % of control | T/C (endpoint: mean tumor weight, dose: 0.25 mg/kg/injection, schedule: Q01DX011 (ip), vehicle: water, higher = larger tumour): 42 % of control | T/C (endpoint: median survival time, dose: 62.5 micrograms/kg/injection, schedule: Q01DX009 (ip), vehicle: saline, higher = longer survival): 98 % of control | T/C (endpoint: median survival time, dose: 125.0 micrograms/kg/injection, schedule: Q01DX009 (ip), vehicle: saline, higher = longer survival): 112 % of control | T/C (endpoint: median survival time, dose: 250.0 micrograms/kg/injection, schedule: Q01DX009 (ip), vehicle: saline, higher = longer survival): 98 % of control

Cc1nc(N)nc(N)c1-c1ccc(Cl)c(Cl)c1
T/C (endpoint: mean tumor weight, dose: 0.9 mg/kg/injection, schedule: Q01DX011 (ip), vehicle: carboxymethylcellulose (CMC), higher = larger tumour): 80 % of control | T/C (endpoint: mean tumor weight, dose: 1.3 mg/kg/injection, schedule: Q01DX011 (ip), vehicle: carboxymethylcellulose (CMC), higher = larger tumour): 89 % of control | T/C [2]: 92 % of control | T/C (endpoint: mean tumor weight, dose: 2.0 mg/kg/injection, schedule: Q01DX011 (ip), vehicle: other, higher = larger tumour): 22 % of control | T/C (endpoint: mean tumor weight, dose: 3.0 mg/kg/injection, schedule: Q01DX011 (ip), vehicle: carboxymethylcellulose (CMC), higher = larger tumour): 45 % of control | T/C (endpoint: mean tumor weight, dose: 6.0 mg/kg/injection, schedule: Q01DX011 (ip), vehicle: other, higher = larger tumour): 4 % of control | T/C (endpoint: median survival time, dose: 0.39 mg/kg/injection, schedule: Q01DX009 (ip), vehicle: saline, higher = longer survival): 96 % of control | T/C (endpoint: median survival time, dose: 0.78 mg/kg/injection, schedule: Q01DX009 (ip), vehicle: saline, higher = longer survival): 108 % of control | T/C (endpoint: median survival time, dose: 1.0 mg/kg/injection, schedule: Q02DX009 (ip), vehicle: Klucel (hydroxypropylcellulose) (HPC), higher = longer survival): 105 % of control | T/C [3]: 123 % of control | T/C (endpoint: median survival time, dose: 2.0 mg/kg/injection, schedule: Q02DX009 (ip), vehicle: Klucel (hydroxypropylcellulose) (HPC), higher = longer survival): 108 % of control | T/C (endpoint: median survival time, dose: 3.13 mg/kg/injection, schedule: Q01DX009 (ip), vehicle: saline, higher = longer survival): 112 % of control

Cc1ccc2oc(-c3ccccc3)c(O)c(=O)c2c1
T/C (endpoint: mean tumor weight, dose: 18.8 mg/kg/injection, schedule: Q01DX010 (ip), vehicle: saline, higher = larger tumour): 77 % of control | T/C (endpoint: mean tumor weight, dose: 37.5 mg/kg/injection, schedule: Q01DX010 (ip), vehicle: saline, higher = larger tumour): 73 % of control | T/C (endpoint: mean tumor weight, dose: 75.0 mg/kg/injection, schedule: Q01DX010 (ip), vehicle: saline, higher = larger tumour): 57 % of control | T/C (endpoint: mean tumor weight, dose: 150.0 mg/kg/injection, schedule: Q01DX010 (ip), vehicle: saline, higher = larger tumour): 86 % of control

C/C=C(\C)C(=O)OC1C(C)C2(O)C(C=C(CO)CC3(O)C(=O)C(C)=CC32)C2C(C)(C)C12OC(=O)CCCCCCCCC (configuration not stated)
T/C (endpoint: median survival time, dose: 0.13 mg/kg/injection, schedule: Q01DX009 (ip), vehicle: saline + alcohol, higher = longer survival): 103 % of control | T/C (endpoint: median survival time, dose: 0.25 mg/kg/injection, schedule: Q01DX009 (ip), vehicle: saline + alcohol, higher = longer survival): 95 % of control | T/C (endpoint: median survival time, dose: 0.5 mg/kg/injection, schedule: Q01DX009 (ip), vehicle: saline + alcohol, higher = longer survival): 92 % of control

CS(=O)(=O)c1ccccc1
T/C (endpoint: mean tumor weight, dose: 58.0 mg/kg/injection, schedule: Q01DX011 (ip), vehicle: other, higher = larger tumour): 99 % of control | T/C (endpoint: mean tumor weight, dose: 88.0 mg/kg/injection, schedule: Q01DX011 (ip), vehicle: other, higher = larger tumour): 103 % of control | T/C [4]: 83 % of control | T/C [5]: 79 % of control | T/C (endpoint: mean tumor weight, dose: 250.0 mg/kg/injection, schedule: Q01DX011 (ip), vehicle: other, higher = larger tumour): 77 % of control | T/C (endpoint: mean tumor weight, dose: 500.0 mg/kg/injection, schedule: Q01DX011 (ip), vehicle: other, higher = larger tumour): 80 % of control | T/C (endpoint: mean tumor weight, dose: 750.0 mg/kg/injection, schedule: Q01DX011 (ip), vehicle: other, higher = larger tumour): 76 % of control | T/C (endpoint: mean tumor weight, dose: 1000.0 mg/kg/injection, schedule: Q01DX011 (ip), vehicle: other, higher = larger tumour): 93 % of control

[Cl][Ni+2][Cl].[NH-]CCN1CC1
T/C [3]: 103 % of control and 115 % of control | T/C (endpoint: median survival time, dose: 12.5 mg/kg/injection, schedule: Q01DX009 (ip), vehicle: saline, higher = longer survival): 100 % of control

O=C(Nc1ccc2c(c1)Cc1cccc(NC(=O)C(Cl)Cl)c1-2)C(Cl)Cl
T/C (endpoint: mean tumor weight, dose: 45.0 mg/kg/injection, schedule: Q01DX011 (ip), vehicle: carboxymethylcellulose (CMC), higher = larger tumour): 72 % of control

CN1CCCC1c1cccnc1 (configuration not stated)
T/C (endpoint: mean tumor weight, dose: 1.0 mg/kg/injection, schedule: Q01DX011 (ip), vehicle: carboxymethylcellulose (CMC), higher = larger tumour): 62 % of control | T/C [2]: 75 % of control | T/C (endpoint: mean tumor weight, dose: 4.0 mg/kg/injection, schedule: Q01DX011 (ip), vehicle: carboxymethylcellulose (CMC), higher = larger tumour): 72 % of control

OCCc1ccccc1
T/C (endpoint: mean tumor weight, dose: 62.5 mg/kg/injection, schedule: Q01DX011 (ip), vehicle: saline, higher = larger tumour): 95 % of control | T/C [1]: 107 % of control | T/C (endpoint: mean tumor weight, dose: 250.0 mg/kg/injection, schedule: Q01DX011 (ip), vehicle: saline, higher = larger tumour): 75 % of control

COc1ccc(CN(CCOC(=O)c2ccc(OC)cc2)CCN(CCOC(=O)c2ccc(OC)cc2)Cc2ccc(OC)cc2)cc1
T/C (endpoint: median survival time, dose: 25.0 mg/kg/injection, schedule: Q01DX009 (ip), vehicle: other, higher = longer survival): 100 % of control | T/C (endpoint: median survival time, dose: 50.0 mg/kg/injection, schedule: Q01DX009 (ip), vehicle: other, higher = longer survival): 98 % of control | T/C (endpoint: median survival time, dose: 100.0 mg/kg/injection, schedule: Q01DX009 (ip), vehicle: other, higher = longer survival): 93 % of control | T/C (endpoint: median survival time, dose: 200.0 mg/kg/injection, schedule: Q01DX009 (ip), vehicle: other, higher = longer survival): 100 % of control

O=c1cc(-c2ccccc2)oc2cccc(O)c12
T/C (endpoint: mean tumor weight, dose: 50.0 mg/kg/injection, schedule: Q01DX010 (ip), vehicle: saline, higher = larger tumour): 73 % of control | T/C (endpoint: mean tumor weight, dose: 100.0 mg/kg/injection, schedule: Q01DX010 (ip), vehicle: saline, higher = larger tumour): 70 % of control | T/C (endpoint: mean tumor weight, dose: 200.0 mg/kg/injection, schedule: Q01DX010 (ip), vehicle: saline, higher = larger tumour): 82 % of control | T/C (endpoint: mean tumor weight, dose: 400.0 mg/kg/injection, schedule: Q01DX010 (ip), vehicle: saline, higher = larger tumour): 67 % of control

CCCCCC[C@@H](O)C/C=C\CCCCCCCC(=O)O
T/C (endpoint: mean tumor weight, dose: 25.0 mg/kg/injection, schedule: Q01DX011 (ip), vehicle: saline, higher = larger tumour): 104 % of control | T/C (endpoint: mean tumor weight, dose: 50.0 mg/kg/injection, schedule: Q01DX011 (ip), vehicle: saline, higher = larger tumour): 77 % of control | T/C (endpoint: mean tumor weight, dose: 100.0 mg/kg/injection, schedule: Q01DX011 (ip), vehicle: saline, higher = larger tumour): 59 % of control

COC(CCC(C)C1OC23CC(OC(=O)CC(C(C)O)OC(=O)CC(O)(O2)C(C)CC3(C)C)C1C)c1cccc(O)c1 (configuration not stated)
T/C (endpoint: median survival time, dose: 25.0 micrograms/kg/injection, schedule: Q01DX009 (ip), vehicle: other, higher = longer survival): 88 % of control | T/C (endpoint: median survival time, dose: 50.0 micrograms/kg/injection, schedule: Q01DX009 (ip), vehicle: other, higher = longer survival): 101 % of control | T/C (endpoint: median survival time, dose: 100.0 micrograms/kg/injection, schedule: Q01DX009 (ip), vehicle: other, higher = longer survival): 111 % of control

Cc1cccc(C)c1[N+](=O)[O-]
T/C [4]: 88 % of control | T/C [5]: 66 % of control | T/C (endpoint: mean tumor weight, dose: 300.0 mg/kg/injection, schedule: Q01DX011 (ip), vehicle: other, higher = larger tumour): 67 % of control

CO/[N+]([O-])=C\C(=O)N/C=C/C(=O)O
T/C (endpoint: mean tumor weight, dose: 22.0 mg/kg/injection, schedule: Q01DX011 (ip), vehicle: carboxymethylcellulose (CMC), higher = larger tumour): 80 % of control | T/C (endpoint: mean tumor weight, dose: 33.0 mg/kg/injection, schedule: Q01DX011 (ip), vehicle: carboxymethylcellulose (CMC), higher = larger tumour): 57 % of control

O=P(NC12CC3CC(CC(C3)C1)C2)(N1CC1)N1CC1
T/C (endpoint: median survival time, dose: 0.25 mg/kg/injection, schedule: Q01DX009 (ip), vehicle: Klucel (hydroxypropylcellulose) (HPC), higher = longer survival): 86 % of control | T/C (endpoint: median survival time, dose: 0.5 mg/kg/injection, schedule: Q01DX009 (ip), vehicle: Klucel (hydroxypropylcellulose) (HPC), higher = longer survival): 117 % of control | T/C (endpoint: median survival time, dose: 1.0 mg/kg/injection, schedule: Q01DX009 (ip), vehicle: Klucel (hydroxypropylcellulose) (HPC), higher = longer survival): 92 % of control | T/C (endpoint: median survival time, dose: 2.0 mg/kg/injection, schedule: Q01DX009 (ip), vehicle: Klucel (hydroxypropylcellulose) (HPC), higher = longer survival): 104 % of control | T/C (endpoint: median survival time, dose: 4.0 mg/kg/injection, schedule: Q01DX009 (ip), vehicle: Klucel (hydroxypropylcellulose) (HPC), higher = longer survival): 101 % of control

Reference: PubChem BioAssay AID270 (DTP/NCI, 2004)
